# According to US9156853B2, “AKT inhibitor compounds for treatment of cancer” (ALMAC DISCOVERY LIMITED, priority 2012, dated 2015):
# Where a name gives a salt, the structure may show the parent alone.
# How the values were obtained:
# AKT1 = target: T1, AKT1 (Homo sapiens, UniProt P31749); experiment: AKT Kinase Assay (IMAP fluorescent polarisation), AKT1 isoform; type: biochemical; settings: for IC50: activated AKT1, FAM Crosstide substrate; for potency against AKT1 compared with the comparator compound: compared with the non-hydroxylated Compound A, F or L
# T1 construct: purchased SignalChem
# Procedure: (§1) Testing of the compounds was performed using an AKT Kinase Assay:
# (§2) Activated AKT isoforms 1, 2 and 3 were assayed utilising a 5′ FAM Crosstide (Seq. GRPRTSSFAEG-OH). The extent of kinase phosphorylation was determined by fluorescent polarisation using IMAP progressive binding reagent, which introduces binding beads which allow the reagent to specifically bind to phosphate residues via covalent co-ordination complex bonds.
# (§3) iMAP binding solution stops Crosstide/kinase interaction and specifically binds phosphorylated substrates. The degree of phosphorylation is determined by fluorescent polarisation (excitation 485 nm; emission 528 nm) or the reduction in speed of rotation of the excited substrate.
# (§4) The following materials were used in the assay: • a) Activated AKT isoforms (SignalChem.) dissolved in Complete Reaction buffer at a predetermined concentration selected so that the assay was carried out in the linear range. • b) AKT substrate peptide: FAM Crosstide (R7110) Molecular Devices, diluted in complete reaction buffer. • c) iMAP Progressive Screening Express Kit (R8127) Molecular Devices • d) Complete Reaction Buffer containing 0.1% BSA, 10 mM Tris-HCl, 10 mM MgCl2, 0.05% NaN3 and 0.01% phosphate free BSA, 1 mM DTT • e) Progressive Binding Solution containing 75% Buffer A, 25% Buffer B and low volume Binding Reagent which contains the binding entity for the assay • f) ATP diluted in complete reaction buffer • g) Black polystyrene 384 well assay plates (Nunc). • h) Biotek Synergy 4 Hybrid Plate reader.
# (§5) 5 μl of test compound was dissolved in DMSO (Sigma Aldrich) and serially diluted in complete reaction buffer to give a fourteen point half log dose response and plated into 384 well black plates. The compound was incubated at room temperature with activated AKT isoform (5 μl) at the predetermined concentration, for 45 min.
# (§6) 2.5 μl of ATP solution mixed with 2.5 μl of AKT substrate peptide (FAM Crosstide (R7110) Molecular Devices) were dispensed into each well and the plate centrifuged at 1000 rpm for 20 seconds to ensure homogenous mixing of reagents. The reaction mix was incubated in the dark for 1 h at room temperature.
# (§7) The kinase reaction was stopped by the addition of Progressive Binding Solution and the mixture allowed to equilibrate for 1 h in the dark, at room temperature.
# (§8) The fluorescent polarisation generated in each well was determined using a […] Synergy 4 Hybrid plate reader. In brief, each reaction solution was excited at 485 nm with the emission measured at 528 nm in both the parallel and perpendicular pathway.
# (§9) The polarisation value generated in each well was calculated by Gen5 software (Biotek) and the % inhibition of kinase activity compared to vehicle control was calculated via GraphPad Prism. IC50 values for each compound were calculated by non-linear regression analysis using Prism software.
# (§10) All plates were internally controlled by two methods. Firstly, by calculating the signal:noise ratio; based on kinase polarisation without inhibitor and polarisation generated by complete reaction buffer in the absence of activated kinase. Secondly by determining IC50 values generated by known inhibitors of the AKT isoforms.
# (§11) The data was analysed using GraphPad Prism, with IC50 values generated using non-linear regression of the data set.
# AKT2 = target: T2, AKT2 (Homo sapiens, UniProt P31751); experiment: AKT Kinase Assay (IMAP fluorescent polarisation), AKT2 isoform; type: biochemical; settings: for IC50: activated AKT2, FAM Crosstide substrate; for potency against AKT2 compared with the comparator compound: compared with the non-hydroxylated Compound A, F or L
# T2 construct: purchased SignalChem
# Procedure: as §1, §2, §3, §4, §5, §6, §7, §8, §9, §10, §11
# AKT3 = target: T3, AKT3 (Homo sapiens, UniProt Q9Y243); experiment: AKT Kinase Assay (IMAP fluorescent polarisation), AKT3 isoform; type: biochemical; settings: for IC50: activated AKT3, FAM Crosstide substrate; for potency against AKT3 compared with the comparator compound: compared with the non-hydroxylated Compound A, F or L
# T3 construct: purchased SignalChem
# Procedure: as §1, §2, §3, §4, §5, §6, §7, §8, §9, §10, §11
# [1] = tested on: pAKT (Ser473) in PC3 cells; experiment: Inhibition of pAKT in PC3 cells; type: cell-based; settings: Homo sapiens, PC-3, 24 h incubation, read-out: inhibition of pAKT in PC3 cell lines, IC50
# Procedure: Analysis of Compound Effects on AKT Signalling Pathways: Inhibition of pAKT in PC3 Cells
# PC3 cells were seeded overnight in 96 well plates followed by serum starvation for 4 h. Increasing concentrations of AKT inhibitor, in complete medium (RPMI 1640), were added to the cells and incubated for a further 24 h.
# The cells were fixed in paraformaldehyde, permeabilised and blocked in BSA, followed by incubation with pAKT (Ser473) and total AKT antibody overnight (R&D Systems). Secondary antibody mixture was added, followed by a combination of fluorescent substrates added for a final incubation.
# Fluorescent intensities for each antibody were read at 540/600 nm and 360/450 nm respectively on a Synergy 4 plate reader. The percentage change in fluorescent intensity was plotted against log concentration of inhibitor; to generate IC50 values (GraphPad Prism).
# T2 sequence (P31751 whole entry, canonical isoform): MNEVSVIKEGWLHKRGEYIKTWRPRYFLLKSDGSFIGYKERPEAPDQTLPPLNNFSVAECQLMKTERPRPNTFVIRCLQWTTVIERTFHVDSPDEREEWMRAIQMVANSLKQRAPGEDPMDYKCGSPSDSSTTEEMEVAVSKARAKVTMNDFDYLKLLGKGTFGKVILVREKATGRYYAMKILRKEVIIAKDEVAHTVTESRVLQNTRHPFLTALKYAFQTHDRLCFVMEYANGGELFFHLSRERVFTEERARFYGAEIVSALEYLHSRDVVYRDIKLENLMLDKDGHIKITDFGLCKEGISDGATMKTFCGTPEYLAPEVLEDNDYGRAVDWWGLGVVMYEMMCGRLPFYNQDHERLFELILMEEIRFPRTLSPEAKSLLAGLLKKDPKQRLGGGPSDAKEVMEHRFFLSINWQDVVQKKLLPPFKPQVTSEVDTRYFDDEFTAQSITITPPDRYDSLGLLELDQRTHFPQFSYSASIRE
# T1 sequence (P31749 whole entry, canonical isoform): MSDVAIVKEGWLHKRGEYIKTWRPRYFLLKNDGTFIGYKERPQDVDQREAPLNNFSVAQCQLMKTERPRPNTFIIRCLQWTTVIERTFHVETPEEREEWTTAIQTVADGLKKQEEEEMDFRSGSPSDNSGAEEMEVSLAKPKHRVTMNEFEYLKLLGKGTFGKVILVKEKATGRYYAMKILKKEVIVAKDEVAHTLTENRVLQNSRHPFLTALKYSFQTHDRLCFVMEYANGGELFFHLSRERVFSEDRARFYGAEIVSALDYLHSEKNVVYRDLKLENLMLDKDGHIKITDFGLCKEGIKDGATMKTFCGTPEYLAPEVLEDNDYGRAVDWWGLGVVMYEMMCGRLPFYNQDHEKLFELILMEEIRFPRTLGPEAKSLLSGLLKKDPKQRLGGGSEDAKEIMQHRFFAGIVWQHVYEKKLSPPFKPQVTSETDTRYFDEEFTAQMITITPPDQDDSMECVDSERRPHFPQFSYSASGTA
# T3 sequence (Q9Y243 whole entry, canonical isoform): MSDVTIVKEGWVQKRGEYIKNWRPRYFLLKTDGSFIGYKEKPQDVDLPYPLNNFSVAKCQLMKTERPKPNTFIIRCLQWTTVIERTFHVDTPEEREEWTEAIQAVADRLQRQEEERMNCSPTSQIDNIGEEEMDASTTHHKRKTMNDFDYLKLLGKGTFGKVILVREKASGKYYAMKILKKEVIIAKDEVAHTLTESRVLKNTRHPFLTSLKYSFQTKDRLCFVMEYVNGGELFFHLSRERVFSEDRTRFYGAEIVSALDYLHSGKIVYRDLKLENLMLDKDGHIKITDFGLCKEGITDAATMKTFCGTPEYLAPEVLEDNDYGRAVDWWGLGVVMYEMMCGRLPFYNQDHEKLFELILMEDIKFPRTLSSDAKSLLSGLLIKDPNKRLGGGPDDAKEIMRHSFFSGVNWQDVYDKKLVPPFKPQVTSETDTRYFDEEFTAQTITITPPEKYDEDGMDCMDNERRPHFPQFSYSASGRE
IC50 (AKT1) [nM],IC50 (AKT2) [nM],potency against AKT2 compared with the comparator compound (AKT2),IC50 (AKT3) [nM],potency against AKT3 compared with the comparator compound (AKT3),selectivity for AKT2 over AKT1 and AKT3 compared with compound A (AKT2; compared with compound A),potency against AKT1 compared with the comparator compound (AKT1),IC50 [1] [nM],SMILES
300 to 1500,> 100,,> 6000,,,,,"NC1(c2ccc(-c3sc4ncn(CC(F)(F)F)c(=O)c4c3-c3ccccc3)cc2)CCC1 [Compound F, reference compound]"
> 1500,> 100,,> 6000,,,,,"Cn1c(-c2ccc([C@]3(N)C[C@](C)(O)C3)cc2)c(-c2ccncc2)c2c(=O)n(CC(F)(F)F)cnc21 [Compound 17, 6-(4-((1r,3r)-1-Amino-3-hydroxy-3-methylcyclobutyl)phenyl)-7-methyl-5-(pyridin-4-yl)-3-(2,2,2-trifluoroethyl)-3H-pyrrolo[2,3-d]pyrimidin-4(7H)-one.HCl]"
> 1500,> 100,,> 6000,,,,,"Cn1c(-c2ccc([C@]3(N)C[C@@](C)(O)C3)cc2)c(-c2ccccn2)c2c(=O)n(CC(F)(F)F)cnc21 [Compound 18, 6-(4-((1 s,3s)-1-Amino-3-hydroxy-3-methylcyclobutyl)phenyl)-7-methyl-5-(pyridin-2-yl)-3-(2,2,2-trifluoroethyl)-3H-pyrrolo[2,3-d]pyrimidin-4(7H)-one.HCl]"
> 1500,> 100,,> 6000,,,,,"C[C@]1(O)C[C@](N)(c2ccc(-c3sc4ncn(CC(F)(F)F)c(=O)c4c3-c3ccccn3)cc2)C1 [Compound 19, 6-(4-((1s,3s)-1-Amino-3-hydroxy-3-methylcyclobutyl)phenyl)-5-(pyridin-2-yl)-3-(2,2,2-trifluoroethyl)thieno[2,3-d]pyrimidin-4(3H)-one.HCl]"
> 1500,> 100,,> 6000,,,,,"C[C@]1(O)C[C@@](N)(c2ccc(-c3sc4ncn(CC(F)(F)F)c(=O)c4c3-c3ccccn3)cc2)C1 [Compound 20, 6-(4-((1r,3r)-1-Amino-3-hydroxy-3-methylcyclobutyl)phenyl)-5-(pyridin-2-yl)-3-(2,2,2-trifluoroethyl)thieno[2,3-d]pyrimidin-4(3H)-one.HCl]"
300 to 1500,20 to 100,,> 6000,,,,,"Cn1c(-c2ccc(C3(N)CCC3)cc2)c(-c2ccccc2)c2c(=O)n(CC(F)(F)F)cnc21 [Compound L, reference compound]"

# More lines, now with the values behind:
SMILES,IC50 (AKT1) [nM],IC50 (AKT2) [nM],potency against AKT2 compared with the comparator compound (AKT2),IC50 (AKT3) [nM],potency against AKT3 compared with the comparator compound (AKT3),selectivity for AKT2 over AKT1 and AKT3 compared with compound A (AKT2; compared with compound A),potency against AKT1 compared with the comparator compound (AKT1),IC50 [1] [nM]
"Cn1c(-c2ccc([C@]3(N)C[C@@](C)(O)C3)cc2)c(-c2ccccc2)c2c(=O)n(CC(F)(F)F)cnc21 [Compound 10, 6-(4-((1s,3s)-1-Amino-3-hydroxy-3-methylcyclobutyl)phenyl)-7-methyl-5-phenyl-3-(2,2,2-trifluoroethyl)-3H-pyrrolo[2,3-d]pyrimidin-4(7H)-one.HCl]",300 to 1500,≤ 20,improved potency,1000 to 6000,improved potency,,,
"Cn1c(-c2ccc([C@]3(N)C[C@H](O)C3)cc2)c(-c2ccccc2)c2c(=O)n(CC(F)(F)F)cnc21 [Compound 11, 6-(4-((1r,3r)-1-Amino-3-hydroxycyclobutyl)phenyl)-7-methyl-5-phenyl-3-(2,2,2-trifluoroethyl)-3H-pyrrolo[2,3-d]pyrimidin-4(7H)-one.HCl]",> 1500,20 to 100,,> 6000,,,,
"C[C@]1(O)C[C@@](N)(c2ccc(-c3oc4ncn(CC(F)(F)F)c(=O)c4c3-c3ccncc3)cc2)C1 [Compound 13, 6-(4-((1r,3r)-1-Amino-3-hydroxy-3-methylcyclobutyl)phenyl)-5-(pyridin-4-yl)-3-(2,2,2-trifluoroethyl)furo[2,3-d]pyrimidin-4(3H)-one.TFA]",> 1500,≤ 20,improved potency,> 6000,,greater selectivity,,
"N[C@]1(c2ccc(-c3oc4ncn(CC(F)(F)F)c(=O)c4c3-c3ccccc3)cc2)C[C@H](O)C1 [Compound 3, 6-(4-((1s,3s)-1-Amino-3-hydroxycyclobutyl)phenyl)-5-phenyl-3-(2,2,2-trifluoroethyl)furo[2,3-d]pyrimidin-4(3H)-one.HCl]",300 to 1500,≤ 20,improved potency,1000 to 6000,improved potency,,improved potency,≤ 500
"Cn1c(-c2ccc([C@]3(N)C[C@](C)(O)C3)cc2)c(-c2ccccn2)c2c(=O)n(CC(F)(F)F)cnc21 [Compound 15, 6-(4-((1r,3r)-1-Amino-3-hydroxy-3-methylcyclobutyl)phenyl)-7-methyl-5-(pyridin-2-yl)-3-(2,2,2-trifluoroethyl)-3H-pyrrolo[2,3-d]pyrimidin-4(7H)-one.TFA]",> 1500,> 100,,> 6000,,,,
"Cn1c(-c2ccc([C@]3(N)C[C@](C)(O)C3)cc2)c(-c2cccnc2)c2c(=O)n(CC(F)(F)F)cnc21 [Compound 16, 6-(4-((1r,3r)-1-Amino-3-hydroxy-3-methylcyclobutyl)phenyl)-7-methyl-5-(pyridin-3-yl)-3-(2,2,2-trifluoroethyl)-3H-pyrrolo[2,3-d]pyrimidin-4(7H)-one.TFA]",> 1500,> 100,,> 6000,,,,
"C[C@]1(O)C[C@@](N)(c2ccc(-c3oc4ncn(CC(F)(F)F)c(=O)c4c3-c3ccccn3)cc2)C1 [Compound 14, 6-(4-((1r,3r)-1-Amino-3-hydroxy-3-methylcyclobutyl)phenyl)-5-(pyridin-2-yl)-3-(2,2,2-trifluoroethyl)furo[2,3-d]pyrimidin-4(3H)-one.HCl]",> 1500,> 100,,> 6000,,,,
"C[C@]1(O)C[C@](N)(c2ccc(-c3sc4ncn(CC(F)(F)F)c(=O)c4c3-c3ccccc3)cc2)C1 [Compound 8, 6-(4-((1s,3s)-1-Amino-3-hydroxy-3-methylcyclobutyl)phenyl)-5-phenyl-3-(2,2,2-trifluoroethyl)thieno[2,3-d]pyrimidin-4(3H)-one.HCl]",≤ 300,20 to 100,improved potency,1000 to 6000,improved potency,,improved potency,
"N[C@]1(c2ccc(-c3sc4ncn(CC(F)(F)F)c(=O)c4c3-c3ccccc3)cc2)C[C@H](O)C1 [Compound 9, 6-(4-((1s,3s)-1-Amino-3-hydroxycyclobutyl)phenyl)-5-phenyl-3-(2,2,2-trifluoroethyl)thieno[2,3-d]pyrimidin-4(3H)-one.HCl]",≤ 300,≤ 20,improved potency,1000 to 6000,improved potency,,improved potency,
"N[C@]1(c2ccc(-c3sc4ncn(CC(F)(F)F)c(=O)c4c3-c3ccccc3)cc2)C[C@@H](O)C1 [Compound 12, 6-(4-((1r,3r)-1-Amino-3-hydroxycyclobutyl)phenyl)-5-phenyl-3-(2,2,2-trifluoroethyl)thieno[2,3-d]pyrimidin-4(3H)-one.HCl]",300 to 1500,20 to 100,improved potency,1000 to 6000,improved potency,,,
